Calls of active or inactive are those of the source.
What was measured:
[1] = target: Voltage-dependent T-type calcium channel subunit alpha-1H (Homo sapiens, UniProt O95180); type: functional;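 also: channel activity triggered by adding a high calcium stimulation buffer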
[2] = system: HEK293; assay: PMA/Ionomycin induced NF-kB luciferase assay in 293- NF-kB-Luc stable cells. [Related pubchem assays: 1299, 1270, 1295, 1375, 1287, 1281, 1293, 1291, 1289, 1280, 465, 1364, 1282, 1372, 1365, 1370, 1367, 1366, 1269, 1373, 1292, 1290, 1302, 1371, 1283, 1271, 1294, 1374, 1368, 1369 ]; type: functional, cell-based; details: Homo sapiens
[3] = system: HEK293; assay: Cytotoxicity assay in HEK293 cells. [Related pubchem assays (depositor defined):AID1266, AID1269, AID1270, AID1271, AID1280, AID1281, AID1282, AID1283, AID1287, AID1289, AID1290, AID1291, AID1292, AID1293, AID1294, AID1295, AID1299, AID1302, AID1364, AID1365, AID1366, AID1367, AID1369, AID1370, AID1371, AID1372, AID1373, AID1374, AID1375, AID1384 …; type: functional, cell-based; details: Homo sapiens
[4] = target: Luciferin 4-monooxygenase (Photinus pyralis, UniProt P08659); assay: In vitro luciferase assay using purified luciferase. [Related pubchem assays: 1299, 1270, 1295, 1375, 1287, 1281, 1293, 1291, 1289, 1280, 465, 1364, 1282, 1372, 1365, 1370, 1367, 1366, 1266, 1373, 1292, 1290, 1302, 1371, 1283, 1271, 1294, 1374, 1368, 1369 ]
[5] = target: Photoreceptor-specific nuclear receptor (Homo sapiens, UniProt Q9Y5X4); type: functional;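 also: potency for compounds that break the NR2E3 corepressor complex and count as activators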
[6] = target: T1, Polyadenylate-binding protein 1 (Homo sapiens, UniProt P11940); assay: MLLE domain peptide-binding blockers, IC50 – biochemical, fluorescence polarization, FITC-PAM2 peptide, dose response (AID 602259); type: functional; details: read-out: IC50_Mean
[7] = target: Peroxisome proliferator-activated receptor gamma/Nuclear receptor corepressor 2 (Homo sapiens, UniProt P37231+Q9Y618); type: functional
[8] = target: T1, Polyadenylate-binding protein 1; assay: MLLE binding blockers, Cy5 peptide tracer – biochemical, fluorescence polarization, Cy5-PAM2 peptide, secondary, miRNA deadenylation inhibitor project, dose response (AID 602260); type: functional; details: read-out: IC50_Mean
[9] = target: T2, Endoribonuclease toxin MazF (Escherichia coli K-12, UniProt P0AE70); assay: substrate-only fluorescence increase artefacts – biochemical, single-stranded RNase substrate, counter-screen for MazEF activator project, dose response (AID 588502); type: functional
T2 sequence (P0AE70 whole entry): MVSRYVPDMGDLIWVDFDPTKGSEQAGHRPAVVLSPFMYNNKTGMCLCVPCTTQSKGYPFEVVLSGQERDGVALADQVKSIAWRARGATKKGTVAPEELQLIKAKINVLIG

[10] = system: Salmon testes DNA; assay: acridine orange-DNA binding displacement – biochemical, fluorescence polarization, cherry-picked samples, set 2, artefact control for KSHV LANA DNA-binding inhibitor project, dose response (AID 504727); design: species or system Salmonidae
[11] = target: T2, Endoribonuclease toxin MazF; assay: activation of MazEF endoribonuclease cleavage – biochemical, fluorescence, single-stranded RNA substrate, uHTS hits, dose response (AID 588481); type: functional
[12] = system: HeLa; assay: viability loss in HeLa cells – cell-based, 24 h, cherry-picked samples, cytotoxicity control, dose response (AID 504726); type: functional; details: Homo sapiens;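 also: potency for cytotoxicity as loss of luminescence signal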
[13] = target: T3, ORF 73 (Human herpesvirus 8, UniProt O40947); assay: KSHV LANA DNA-binding disruption – biochemical, fluorescence polarization, cherry-picked samples, dose response (AID 504725); design: species or system Human gammaherpesvirus 8;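 also: fluorescence polarization of a labeled DNA duplex reporting LANA DNA binding; potency is for inhibitors that block LANA binding to the DNA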
T3 sequence (O40947 whole entry): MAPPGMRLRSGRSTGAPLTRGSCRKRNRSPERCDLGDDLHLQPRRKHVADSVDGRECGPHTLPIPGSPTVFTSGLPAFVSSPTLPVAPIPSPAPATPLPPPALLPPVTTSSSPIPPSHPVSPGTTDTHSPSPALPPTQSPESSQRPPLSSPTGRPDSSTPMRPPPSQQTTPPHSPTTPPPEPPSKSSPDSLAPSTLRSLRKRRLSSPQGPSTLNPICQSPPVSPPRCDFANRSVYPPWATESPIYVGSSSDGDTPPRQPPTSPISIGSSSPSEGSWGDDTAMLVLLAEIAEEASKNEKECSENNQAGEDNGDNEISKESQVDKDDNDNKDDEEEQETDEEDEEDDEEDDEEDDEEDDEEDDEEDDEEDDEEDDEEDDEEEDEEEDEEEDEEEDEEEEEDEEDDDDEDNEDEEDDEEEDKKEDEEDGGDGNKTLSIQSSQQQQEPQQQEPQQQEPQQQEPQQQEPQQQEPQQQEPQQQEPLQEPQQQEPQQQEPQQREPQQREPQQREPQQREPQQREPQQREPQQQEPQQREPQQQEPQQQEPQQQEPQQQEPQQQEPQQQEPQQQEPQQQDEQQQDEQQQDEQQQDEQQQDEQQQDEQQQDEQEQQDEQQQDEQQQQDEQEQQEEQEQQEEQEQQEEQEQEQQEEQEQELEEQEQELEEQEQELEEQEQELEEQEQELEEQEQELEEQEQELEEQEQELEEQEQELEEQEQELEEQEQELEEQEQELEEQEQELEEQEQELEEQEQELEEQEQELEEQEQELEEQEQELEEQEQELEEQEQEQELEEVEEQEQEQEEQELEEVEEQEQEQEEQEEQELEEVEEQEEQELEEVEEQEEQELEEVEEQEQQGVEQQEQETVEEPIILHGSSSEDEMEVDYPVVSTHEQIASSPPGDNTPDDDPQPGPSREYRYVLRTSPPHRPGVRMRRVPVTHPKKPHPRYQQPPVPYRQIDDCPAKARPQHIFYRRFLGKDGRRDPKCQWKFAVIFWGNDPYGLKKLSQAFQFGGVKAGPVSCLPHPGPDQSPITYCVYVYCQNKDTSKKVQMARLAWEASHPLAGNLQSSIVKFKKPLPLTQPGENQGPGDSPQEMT

[14] = target: Dual specificity protein phosphatase 3 (Homo sapiens, UniProt P51452); assay: inhibition constants for human DUSP3 – biochemical, colorimetric, SAR follow-up (AID 2004)
[15] = viability loss of HPDE-C7K cells – cell-based, fluorescence, HTS, primary screen (AID 431); type: functional; details: Homo sapiens
[16] = system: Streptococcus; assay: GAS UMAA2166 growth inhibition – luminescence, BacTiterGlo, counter-screen for streptokinase expression inhibitor project, dose response (AID 1915); type: functional, organism-based;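 also: potency for reduction of bacterial viability or growth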
[17] = target: X-box-binding protein 1 (Homo sapiens, UniProt P17861); type: functional, Cricetulus griseus;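 also: confirmatory dose-response counter-screen serving a CHOP assay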
[18] = system: Streptococcus sp. 'group A'; assay: Streptococcus pyogenes SK(-)GAS viability under kanamycin – luminescence, BacTiterGlo, confirmation, counter-screen for streptokinase expression inhibitor project, dose response (AID 1900); type: functional, organism-based
[19] = HPDE-C7 pancreatic duct cell viability loss – fluorescence, HTS (AID 430); type: functional, cell-based; details: Homo sapiens

T1 sequence (P11940 whole entry, the tested form may be a part): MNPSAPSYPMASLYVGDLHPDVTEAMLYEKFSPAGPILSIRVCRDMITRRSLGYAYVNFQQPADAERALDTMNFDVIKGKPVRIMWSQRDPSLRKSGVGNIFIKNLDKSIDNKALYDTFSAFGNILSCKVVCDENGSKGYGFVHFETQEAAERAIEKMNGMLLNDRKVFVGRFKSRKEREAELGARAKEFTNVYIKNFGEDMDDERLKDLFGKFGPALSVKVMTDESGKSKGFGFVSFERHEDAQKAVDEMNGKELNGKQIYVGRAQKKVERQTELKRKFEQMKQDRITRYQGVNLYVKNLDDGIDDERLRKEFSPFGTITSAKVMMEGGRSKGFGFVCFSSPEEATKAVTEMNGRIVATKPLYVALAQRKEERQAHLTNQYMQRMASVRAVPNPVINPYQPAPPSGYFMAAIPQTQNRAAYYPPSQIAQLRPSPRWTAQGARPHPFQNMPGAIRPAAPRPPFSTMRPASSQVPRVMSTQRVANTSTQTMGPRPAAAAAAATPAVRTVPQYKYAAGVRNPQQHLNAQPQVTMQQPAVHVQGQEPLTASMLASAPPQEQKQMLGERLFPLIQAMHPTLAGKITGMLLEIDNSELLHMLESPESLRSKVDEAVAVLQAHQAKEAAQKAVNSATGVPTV
Luciferin 4-monooxygenase, sequence (P08659 whole entry): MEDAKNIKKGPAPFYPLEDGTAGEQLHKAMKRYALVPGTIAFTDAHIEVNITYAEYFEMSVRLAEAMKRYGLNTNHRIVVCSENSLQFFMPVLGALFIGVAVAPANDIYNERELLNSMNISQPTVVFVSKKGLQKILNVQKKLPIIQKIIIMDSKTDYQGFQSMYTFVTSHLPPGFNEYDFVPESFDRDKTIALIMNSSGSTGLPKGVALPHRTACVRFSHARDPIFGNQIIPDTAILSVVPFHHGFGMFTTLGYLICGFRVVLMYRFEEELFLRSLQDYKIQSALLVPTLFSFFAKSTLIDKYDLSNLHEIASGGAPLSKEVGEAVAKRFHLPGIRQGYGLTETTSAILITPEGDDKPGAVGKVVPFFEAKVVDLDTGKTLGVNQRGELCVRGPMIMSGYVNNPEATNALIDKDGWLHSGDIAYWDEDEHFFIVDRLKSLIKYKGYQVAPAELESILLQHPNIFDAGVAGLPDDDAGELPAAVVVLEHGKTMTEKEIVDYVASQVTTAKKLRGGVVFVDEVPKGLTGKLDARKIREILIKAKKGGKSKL
Voltage-dependent T-type calcium channel subunit alpha-1H, sequence (O95180 whole entry): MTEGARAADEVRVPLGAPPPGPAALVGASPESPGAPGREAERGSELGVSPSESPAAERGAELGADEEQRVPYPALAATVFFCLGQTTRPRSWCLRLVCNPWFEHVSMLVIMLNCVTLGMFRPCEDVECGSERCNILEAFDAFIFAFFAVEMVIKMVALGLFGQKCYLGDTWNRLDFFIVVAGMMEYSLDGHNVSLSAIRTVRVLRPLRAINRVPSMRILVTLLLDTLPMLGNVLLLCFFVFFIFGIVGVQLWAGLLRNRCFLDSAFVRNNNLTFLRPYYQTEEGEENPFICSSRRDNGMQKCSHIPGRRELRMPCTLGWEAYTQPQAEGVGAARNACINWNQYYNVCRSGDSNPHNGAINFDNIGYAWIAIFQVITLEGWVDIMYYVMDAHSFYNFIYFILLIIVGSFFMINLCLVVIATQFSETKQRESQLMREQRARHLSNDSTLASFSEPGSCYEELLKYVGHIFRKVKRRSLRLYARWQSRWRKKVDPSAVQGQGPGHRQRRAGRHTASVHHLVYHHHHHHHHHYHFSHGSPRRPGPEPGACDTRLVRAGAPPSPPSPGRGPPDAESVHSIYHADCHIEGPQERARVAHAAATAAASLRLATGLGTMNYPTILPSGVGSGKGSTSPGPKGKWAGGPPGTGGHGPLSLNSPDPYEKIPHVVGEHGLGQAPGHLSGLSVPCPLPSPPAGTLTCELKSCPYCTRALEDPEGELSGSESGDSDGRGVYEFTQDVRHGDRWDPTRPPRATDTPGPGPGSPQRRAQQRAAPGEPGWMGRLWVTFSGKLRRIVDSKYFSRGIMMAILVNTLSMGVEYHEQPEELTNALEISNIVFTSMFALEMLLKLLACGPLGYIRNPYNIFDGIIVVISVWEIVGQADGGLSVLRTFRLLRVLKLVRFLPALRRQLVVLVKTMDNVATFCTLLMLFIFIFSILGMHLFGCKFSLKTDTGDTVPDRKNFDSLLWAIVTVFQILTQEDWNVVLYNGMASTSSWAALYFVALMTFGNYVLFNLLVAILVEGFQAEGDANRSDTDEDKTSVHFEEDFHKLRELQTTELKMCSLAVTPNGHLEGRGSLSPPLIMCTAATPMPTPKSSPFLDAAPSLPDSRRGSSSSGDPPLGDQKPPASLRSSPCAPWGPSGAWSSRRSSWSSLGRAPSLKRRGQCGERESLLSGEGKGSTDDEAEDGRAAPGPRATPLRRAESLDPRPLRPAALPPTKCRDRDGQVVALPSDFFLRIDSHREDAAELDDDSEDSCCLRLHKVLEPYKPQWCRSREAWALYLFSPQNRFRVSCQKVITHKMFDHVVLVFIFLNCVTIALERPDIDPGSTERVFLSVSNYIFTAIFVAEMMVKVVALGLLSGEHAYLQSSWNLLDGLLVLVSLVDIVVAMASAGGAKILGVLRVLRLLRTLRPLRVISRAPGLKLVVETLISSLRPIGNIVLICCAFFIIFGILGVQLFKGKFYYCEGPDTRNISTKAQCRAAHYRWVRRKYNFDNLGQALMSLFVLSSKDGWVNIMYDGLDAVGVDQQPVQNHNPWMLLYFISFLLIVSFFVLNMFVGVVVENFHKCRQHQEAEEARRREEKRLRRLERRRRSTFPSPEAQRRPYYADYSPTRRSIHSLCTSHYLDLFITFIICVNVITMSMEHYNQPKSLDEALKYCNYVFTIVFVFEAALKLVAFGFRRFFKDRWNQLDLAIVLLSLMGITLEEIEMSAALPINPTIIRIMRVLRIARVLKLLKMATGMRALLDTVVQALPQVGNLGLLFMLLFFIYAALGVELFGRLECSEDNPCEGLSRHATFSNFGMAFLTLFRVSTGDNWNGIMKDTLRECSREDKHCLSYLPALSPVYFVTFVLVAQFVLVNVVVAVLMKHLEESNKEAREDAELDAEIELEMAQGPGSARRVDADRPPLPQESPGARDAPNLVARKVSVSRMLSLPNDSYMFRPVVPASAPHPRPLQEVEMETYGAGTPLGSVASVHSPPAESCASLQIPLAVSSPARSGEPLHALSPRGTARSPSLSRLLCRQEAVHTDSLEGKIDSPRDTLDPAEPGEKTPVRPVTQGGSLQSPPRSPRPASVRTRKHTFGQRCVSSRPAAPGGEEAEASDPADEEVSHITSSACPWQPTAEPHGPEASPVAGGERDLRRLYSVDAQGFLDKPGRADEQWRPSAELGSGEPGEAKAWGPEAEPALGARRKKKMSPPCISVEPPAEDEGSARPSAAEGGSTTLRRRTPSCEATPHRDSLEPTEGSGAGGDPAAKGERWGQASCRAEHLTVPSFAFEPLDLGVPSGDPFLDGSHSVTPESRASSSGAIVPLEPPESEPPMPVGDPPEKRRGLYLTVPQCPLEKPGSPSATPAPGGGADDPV
Dual specificity protein phosphatase 3, sequence (P51452 whole entry): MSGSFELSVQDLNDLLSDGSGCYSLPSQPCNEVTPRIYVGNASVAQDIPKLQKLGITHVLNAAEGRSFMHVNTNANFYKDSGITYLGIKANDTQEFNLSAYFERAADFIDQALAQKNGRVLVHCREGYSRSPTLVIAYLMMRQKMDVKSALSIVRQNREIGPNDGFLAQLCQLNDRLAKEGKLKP
Photoreceptor-specific nuclear receptor, sequence (Q9Y5X4 whole entry, the tested form may be a part): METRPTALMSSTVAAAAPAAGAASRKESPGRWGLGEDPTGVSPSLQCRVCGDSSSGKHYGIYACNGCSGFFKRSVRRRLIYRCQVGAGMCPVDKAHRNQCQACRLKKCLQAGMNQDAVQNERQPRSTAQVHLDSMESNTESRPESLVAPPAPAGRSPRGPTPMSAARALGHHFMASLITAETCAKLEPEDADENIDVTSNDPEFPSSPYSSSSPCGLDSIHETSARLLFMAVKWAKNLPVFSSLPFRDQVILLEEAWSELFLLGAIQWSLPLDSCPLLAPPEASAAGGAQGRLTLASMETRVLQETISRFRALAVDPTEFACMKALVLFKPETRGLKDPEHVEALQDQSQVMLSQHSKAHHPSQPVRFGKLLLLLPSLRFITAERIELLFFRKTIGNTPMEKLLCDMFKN
X-box-binding protein 1, sequence (P17861 whole entry): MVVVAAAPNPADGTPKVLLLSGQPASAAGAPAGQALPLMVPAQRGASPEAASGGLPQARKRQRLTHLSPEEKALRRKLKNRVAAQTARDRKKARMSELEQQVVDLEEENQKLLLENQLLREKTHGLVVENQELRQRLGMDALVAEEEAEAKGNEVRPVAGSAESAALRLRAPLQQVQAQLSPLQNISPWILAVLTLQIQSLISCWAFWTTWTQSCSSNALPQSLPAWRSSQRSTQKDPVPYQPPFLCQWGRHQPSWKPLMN

With `Cc1csc(NC(=O)c2sc3nc(-c4cccs4)ccc3c2N)n1` the EC50 [1] was 6.54 µM (active), the EC50 [2] was 15.8 µM (not active) and the EC50 [3] was > 8 µM (inactive). The EC50 [4] was > 8 µM (not active).
For `COc1cccc(NC(=S)Nc2cc(C)cc(C)n2)c1`, the IC50 [5] was 2.04 µM (active), the IC50 [6] was > 66 µM (inactive) and the IC50 [7] was 1.61 µM (active). For the same molecule, the IC50 [8] was > 66 µM (inactive).
In the case of `COc1ccc(-c2cc(C(F)(F)F)c3c(N)c(C(=O)NCCSC)sc3n2)cc1`, the EC50 [9] is reported as 61.6 µM (inactive), the AC50 [10] is reported as 58.9 µM (active) and the EC50 [11] is reported as > 99 µM (inactive). The AC50 [12] was 45.9 µM (active) and the AC50 [13] was 34.5 µM (active).
In the case of `CCOC(=O)c1sc(N/N=C/c2cccc(O)c2)nc1C`, the Ki [14] is reported as 120 µM (inactive).
With `O=C1c2n[nH]c(-c3ccccc3O)c2C(c2cccc(Cl)c2)N1Cc1ccco1` (centres undefined) the EC50 [15] was 9.83 µM (active), the EC50 [16] was > 150 µM (inconclusive) and the “Absolute IC50 (XBP1)” value [17] was 10 µM. The EC50 [18] was 6.78 µM (active) and the EC50 [19] was 7.07 µM (active).

From ChEMBL document CHEMBL1201862, “PubChem BioAssay data set” (2004)
